Data: US8372830B2, “Methods for using vasopressin antagonists with anthracycline chemotherapy agents to reduce cardiotoxicity and/or improve survival” (Otsuka Pharmaceutical Co., Ltd., priority 2007, dated 2013)

Experiments:
[1] = tested on: doxorubicin-induced mortality; assay: DDAVP infusion and doxorubicin-induced mortality (Example 2); type: in vivo, rat; conditions: DDAVP 1 ng/h s.c. infusion 14 days + doxorubicin 6 x 2.5 mg/kg i.p.; vs doxorubicin alone; p<0.001 Log-Rank; FIG. 4
Description: The present inventors investigated whether activation of V2 receptors can accelerate doxorubicin-induced mortality. A continuous subcutaneous infusion of 1 ng/h of DDAVP (deamino-Cyst, D-Arg-vasopressin) per animal was accomplished using an osmotic minipump (infusion rate: 0.5 μL/h, ALZET model 2002, DURECT Corporation, Cupertino, Calif.) for 14 days. On day 0 an osmotic minipump was implanted subcutaneously. The sham control rats had the same surgical procedure but with only saline in the minipump. The rats were then divided into two groups: one with six intraperitoneal injections of doxorubicin (2.5 mg/kg) during a 13 day period, and one with injections of saline. The rats were fed with liquid food throughout the experiment. With the continuous infusion of DDAVP, liquid food feeding increases systemic volume overload and edema, conditions often observed in CHF patients.

[2] = tested on: doxorubicin toxicity under elevated vasopressin condition
Description: This condition may be relevant to certain cancer patients who have elevated vasopressin release and are undergoing chemotherapy, such as with doxorubicin.
Two groups of rats were studied and the protocol is described in FIG. 13. Rats were intravenously injected with doxorubicin (3 mg/kg) 3 times once every other day for a total of 9 mg/kg (same as described in Example 4). One group (Dox+DDAVP) was given vehicle and the other group (Dox+DDAVP+Tol) was administered tolvaptan (10 mg/kg) once daily. An osmotic minipump (infusion rate: 0.15 μl/h, ALZET model 2006, ALZA Corporation) was implanted in each rat for continuous subcutaneous infusion of 1 ng/h of DDAVP (a vasopressin V2 agonist [deamino-Cys1, D-Arg8]-vasopressin).

[3] = tested on: doxorubicin-treated rats; conditions: antagonist given several weeks after doxorubicin, previous study (ref. 25); cited from earlier work
[4] = tested on: total white blood cell (WBC) and lymphocyte (LY) counts; assay: Myelosuppression: blood cell counts after doxorubicin (Example 3)
Description: (§1) To determine whether tolvaptan affects the plasma concentration of doxorubicin, plasma samples were obtained after the first (day 1) and sixth (day 13) injection of doxorubicin with vehicle or tolvaptan, and the plasma concentration of doxorubicin was measured.
Anthracyclines including doxorubicin are known to cause myelosuppression due to their ability to intercalate into DNA, and to inhibit new protein synthesis and cell proliferation in the bone marrow (similar mechanisms are involved in the inhibition of cancer cell proliferation). Myelosuppression was used as an index of the ability of doxorubicin to inhibit cell proliferation and anti-cancer effect. […] Blood samples were taken after 1 or 13 days of treatment with doxorubicin.

[5] = tested on: left ventricle; assay: Echocardiography of cardiac function, rat model with intravenous injection of doxorubicin (Example 4); type: in vivo
Description: In a clinical setting, doxorubicin is administered intravenously to cancer patients. Furthermore, the major side effect associated with doxorubicin treatment is cardiac dysfunction and development of CHF. Therefore, the effect of tolvaptan on CHF was evaluated in a rat model with intravenous injection of doxorubicin. Cardiac function was determined using high resolution ultrasonograpy. Rats were divided into 3 groups as described in Table 2, and observed for 10 weeks. [table] Control rats were not treated. […] Rats were given either vehicle or tolvaptan (10 mg/kg) daily starting on the first day of doxorubicin injection. On the days with co-administration of doxorubicin and tolvaptan, tolvaptan was given by oral gavage 45 min prior to the intravenous injection of doxorubicin. Cardiac function was evaluated using echocardiography (Vevo 770, Visualsonics Inc, Toronto, Canada). Echo images were taken once a week for 10 consecutive weeks. Rats were anesthetized with Isoflurane and parasternal long and short axis echo images were recorded. Offline analysis of cardiac function (ejection fraction and fraction shortening) and anatomic data of the heart (LV end diastolic diameter and volume) were performed. At the end of the 10-week period, cardiac contractility (LVdp/dtmax/ip) was measured invasively.

[6] = tested on: doxorubicin-induced cardiac toxicity and animal death; assay: Survival of rats given repeated intraperitoneal injections of doxorubicin (Example 1); type: in vivo, rat; conditions: tolvaptan 10 mg/kg orally daily
Description: Repeated injection of doxorubicin in animals is known to cause cardiac injury and to increase mortality. A study was designed to investigate the effect of tolvaptan on doxorubicin-induced cardiac toxicity and animal death. Four groups of rats were evaluated; all with 6 injections of doxorubicin (2.5 mg/kg each) during a two week period. To test the ability of tolvaptan to prevent toxicity, tolvaptan (10 mg/kg orally) daily was given to one group of rats (Tol+Dox). Another group of rats was given vehicle only (Veh+Dox). To test the ability of tolvaptan to reverse the toxicity, tolvaptan (10 mg/kg orally) daily was given to one group of rats, starting after the completion of doxorubicin administration (Dox+Tol). Another group of rats was given vehicle only (Dox+Veh). Table 1 summarizes the group designations:
Survival was analyzed using Kaplan-Meier survival analysis with the Log-Rank test.

[7] = Plasma concentration of doxorubicin with vehicle or tolvaptan (Example 3); type: in vivo, rat; conditions: after first (day 1) and sixth (day 13) doxorubicin injection; tolvaptan vs vehicle; FIG. 6
Description: as §1

[8] = tested on: left ventricle; assay: Invasive hemodynamic measurement of cardiac contractility at end of 10 weeks (Example 4); type: in vivo, rat; conditions: tolvaptan-treated vs vehicle-treated doxorubicin rats, FIG. 12
Description: Control rats were not treated. For groups 2 and 3 with doxorubicin treatment, rats were given three injections intravenously of doxorubicin (3 mg/kg each) every other day (total dose of 9 mg/kg). […] Rats were given either vehicle or tolvaptan (10 mg/kg) daily starting on the first day of doxorubicin injection. On the days with co-administration of doxorubicin and tolvaptan, tolvaptan was given by oral gavage 45 min prior to the intravenous injection of doxorubicin.
Invasive hemodynamic measurements were performed at the end of the 10 week period.

[9] = thirteen-day treatment with doxorubicin, FIG. 7

With `NC(=O)CC[C@@H]1NC(=O)[C@H](Cc2ccccc2)NC(=O)[C@H](Cc2ccc(O)cc2)NC(=O)CCSSC[C@@H](C(=O)N2CCC[C@H]2C(=O)N[C@H](CCCN=C(N)N)C(=O)NCC(N)=O)NC(=O)[C@H](CC(N)=O)NC1=O` [DDAVP, [deamino-Cys1, D-Arg8]-vasopressin] the “death rate from doxorubicin” value [1] was “significantly accelerated”, the “toxicity of doxorubicin under DDAVP infusion” value ([2]; DDAVP 1 ng/h s.c. infusion + doxorubicin 3 x 3 mg/kg i.v., FIG. 14) was “very toxic” and the “time in which rats died” value ([2]; DDAVP 1 ng/h s.c. infusion + doxorubicin 3 x 3 mg/kg i.v., vehicle) was 2 weeks.
In the case of `Cc1ccccc1C(=O)Nc1ccc(C(=O)N2CCCC(N(C)C)c3ccccc32)cc1` (centres unmarked) [OPC-31260], the mortality rate [3] is listed as “slight but not significant reduction”.
In the case of `COc1cccc2c1C(=O)c1c(O)c3c(c(O)c1C2=O)C[C@@](O)(C(=O)CO)C[C@@H]3O[C@H]1C[C@H](N)[C@H](O)[C@H](C)O1` [doxorubicin], the blood cell counts ([4]; one day treatment with doxorubicin) is reported as “did not affect”, the “lymphocyte (LY) count” value [4, 9] is reported as “significantly reduced” and the “total white blood cell (WBC) count” value [4, 9] is reported as “significantly reduced”. For the same compound, the “fractional shortening of the left ventricle” value ([5]; doxorubicin 3 x 3 mg/kg i.v. every other day, weekly echo for 10 weeks, FIG. 8) was “progressively decreased”, the “ejection fraction of the left ventricle” value ([5]; doxorubicin 3 x 3 mg/kg i.v. every other day, weekly echo for 10 weeks, FIG. 9) was “progressively decreased” and the “left ventricle diastolic volume” value ([5]; doxorubicin 3 x 3 mg/kg i.v., weight adjusted, FIG. 10) was “progressively increased”. For the same compound, the “left ventricle diastolic diameter” value ([5]; doxorubicin 3 x 3 mg/kg i.v., weight adjusted, FIG. 11) was “progressively increased”.
In the case of `Cc1ccccc1C(=O)Nc1ccc(C(=O)N2CCCC(O)c3cc(Cl)ccc32)c(C)c1` (centres unmarked) [tolvaptan, 7-chloro-5-hydroxy-1-[2-methyl-4-(2-methylbenzoyl-amino)benzoyl]-2,3,4,5-tetrahydro-1H-benzazepine], the “delay of rat death” value ([6]; initiated after completion of 6 doxorubicin injections, 5 rats per group, FIG. 2) is reported as “only a small delay”, the “protective effect on mortality” value ([6]; initiated after completion of 6 doxorubicin injections, FIG. 2) is reported as “largely lost” and the “mortality rate (Kaplan-Meier survival analysis, Log-Rank test)” value ([6]; starting with first doxorubicin injection (6 x 2.5 mg/kg i.p.), 12 weeks, vs vehicle, p<0.001, FIG. 1) is reported as “significantly reduced”. For the same compound, the “effect on plasma concentration of doxorubicin” value [7] was “did not affect”, the “effect on the myelosuppressive effect of doxorubicin” value ([4]; rat, in vivo) was “did not affect” and the “cardiac function (fractional shortening, ejection fraction)” value ([5]; tolvaptan 10 mg/kg orally daily from first day of doxorubicin, vs vehicle, FIGS. 8 and 9) was “significantly improved”. For the same compound, the “remodeling process of the left ventricle” value ([5]; tolvaptan 10 mg/kg orally daily with doxorubicin, FIGS. 10 and 11) was “slowed”, the “contractility index (LVdp/dtmax normalized to instantaneous LV pressure)” value [8] was “higher” and the “survival (Kaplan-Meier)” value ([2]; tolvaptan 10 mg/kg once daily, Dox+DDAVP+Tol vs Dox+DDAVP, FIG. 14) was “significantly improved”.
